pIC50: −log10 of the molar value. ≈ marks a conversion by molar mass, not a printed value.
Columns and labels:
[1] = target: KRAS G12C (GMPPNP-loaded) and cRAF (Ras-binding domain) interaction (Homo sapiens (Human), UniProt P01116, C118S/C51S/C80L/G12C); experiment: Inhibition of KRAS G12C and cRAF binding (AlphaScreen); conditions: KRAS G12C loaded with GMPPNP, cRaf RBD, 2 hours preincubation; read-out: Raf-1 RBD K-Ras IC50
In short: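 GMPPNP-loaded KRAS G12C in 25 mM Hepes pH 7.4, 150 mM NaCl, 5 mM MgCl2, 0.01% Triton X-100, 10 μM GMPPNP, 2% DMSO, preincubated with compound 2 h at room temperature. cRAF RBD plus AlphaScreen beads then added for 60-90 min; signal read at 570 nm.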

[2] = Determination of logD (1-octanol / phosphate buffer pH 7.4); assay type: physicochemical; conditions: 1-octanol/phosphate buffer, pH 7.4, pH 7.4, 1-octanol/phosphate buffer; read-out: Log D, pH 7.4
In short: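 Shake-flask partition between 1-octanol and 100 mM phosphate buffer pH 7.4, each phase presaturated with the other overnight. Tubes shaken 1 h at 800 rpm, room temperature, then centrifuged. Both phases quantified by LCMS and logD calculated from the ratio.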

[3] = Determination of kinetic solubility (pH 7.4); assay type: physicochemical; conditions: phosphate buffer, pH 7.4, aqueous buffer, kinetic from dmso stock, 50 mM phosphate buffer pH 7.4, read-out: Ksol, pH 7.4
In short: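 Sample mixed with 50 mM phosphate buffer, pH 7.4, vortexed, then shaken 2 h at room temperature and centrifuged. Filtrate analysed by HPLC-UV and LC-MS/MS, with solubility read from peak areas against a standard calibration curve.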

Sequence of KRAS G12C (GMPPNP-loaded) and cRAF (Ras-binding domain) interaction (P01116 other isoform, or with tags, fused parts or gaps G12C/C51S/C80L/C118S): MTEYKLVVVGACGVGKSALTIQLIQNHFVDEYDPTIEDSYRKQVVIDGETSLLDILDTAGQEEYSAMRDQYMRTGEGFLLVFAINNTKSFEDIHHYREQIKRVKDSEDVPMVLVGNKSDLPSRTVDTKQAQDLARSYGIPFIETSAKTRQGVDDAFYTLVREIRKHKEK

SMILES	pIC50 [1]	logD [2]	solubility kinetic at 2 h [3] [µg/mL]
CCc1c(F)ccc2cccc(-c3ncc4c(N5CCN(C(=O)/C=C/CN6[C@@H]7CC[C@H]6COC7)[C@@H](CC#N)C5)nc(OC[C@@]56CCCN5C[C@H](F)C6)nc4c3F)c12 [Compound 99, 2-((S)-1-((E)-4-((1R,5S)-3-oxa-8-azabicyclo[3.2.1]octan-8-yl)but-2-enoyl)-4-(7-(8-ethyl-7-fluoronaphthalen-1-yl)-8-fluoro-2-(((2R,7aS)-2-fluorotetrahydro-1H-pyrrolizin-7a(5H)-yl)methoxy)pyrido[4,3-d]pyrimidin-4-yl)piperazin-2-yl)acetonitrile]	> 8.00	3.4	78 (≈ 99.8 µM)
N#CC[C@H]1CN(c2nc(OCC34CCCN3CCC4)nc3c2CCN(c2cccc4cccc(Cl)c24)C3)CCN1C(=O)/C=C/CN1CC(F)C1 [Compound 201]	7.00 to 8.00	2.76	119 (≈ 171 µM)
N#CC[C@H]1CN(c2nc(OC[C@@]34CCCN3C[C@H](F)C4)nc3c(F)c(-c4cccc(Cl)c4C4CC4)ncc23)CCN1C(=O)/C=C/CN1CCCOCC1 [Compound 112, 2-((S)-1-((E)-4-(1,4-oxazepan-4-yl)but-2-enoyl)-4-(7-(3-chloro-2-cyclopropylphenyl)-8-fluoro-2-(((2R,7aS)-2-fluorotetrahydro-1H-pyrrolizin-7a(5H)-yl)methoxy)pyrido[4,3-d]pyrimidin-4-yl)piperazin-2-yl)acetonitrile]	> 8.00	3.28	52.4 (≈ 70.1 µM)
CN1CCN(C/C=C/C(=O)N2CCN(c3nc(OCC45CCCN4CCC5)nc4c3CCN(c3cccc5cccc(Cl)c35)C4)C[C@@H]2CC#N)CC1 [Compound 162]	7.00 to 8.00	1.97	133 (≈ 183 µM)
CC1(c2noc(/C=C/C(=O)N3CCN(c4nc(OC[C@@]56CCCN5C[C@H](F)C6)nc5c(F)c(-c6cccc7cccc(Cl)c67)ncc45)C[C@@H]3CC#N)n2)CC1 [Compound 47]	6.30 to 7.00	4.59	0.01 (≈ 0.0131 µM)
N#CC[C@H]1CN(c2nc(OC[C@@]34CCCN3C[C@H](F)C4)nc3c(F)c(-c4cccc(Cl)c4C(F)F)ncc23)CCN1C(=O)/C=C/CN1[C@@H]2CC[C@H]1COC2 [Compound 275]	> 8.00	2.73	106 (≈ 137 µM)
Cn1cnc(/C=C/C(=O)N2CCN(c3nc(OCC45CCCN4CCC5)nc4c3CCN(c3cccc5cccc(Cl)c35)C4)C[C@@H]2CC#N)c1 [Compound 22]	< 6.30	2.92	77.7 (≈ 112 µM)
N#CC[C@H]1CN(c2nc(OC[C@@]34CCCN3C[C@H](F)C4)nc3c(F)c(-c4cccc(F)c4C(F)(F)F)ncc23)CCN1C(=O)/C=C/CN1[C@@H]2CC[C@H]1COC2 [Compound 292]	> 8.00	2.54	112 (≈ 145 µM)
N#CC[C@H]1CN(c2nc(OCC34CCCN3CCC4)nc3c2CCN(c2cccc4cccc(Cl)c24)C3)CCN1C(=O)/C=C/CN1C[C@@H]2C[C@H]1CO2 [Compound 62]	> 8.00	2.06	95.1 (≈ 131 µM)
N#CC[C@H]1CN(c2nc(OC[C@@]34CCCN3C[C@H](F)C4)nc3c(F)c(-c4cccc5cccc(F)c45)ncc23)CCN1C(=O)/C=C/CN1CCSCC1 [Compound 232]	> 8.00	3.68	34.8 (≈ 46.9 µM)
C#Cc1c(F)ccc2cccc(-c3ncc4c(N5CCN(C(=O)/C=C/CN6[C@@H]7CC[C@H]6COC7)[C@@H](CC#N)C5)nc(OC[C@@]56CCCN5C[C@H](F)C6)nc4c3F)c12 [Compound 107, 2-((S)-1-((E)-4-((1R,5S)-3-oxa-8-azabicyclo[3.2.1]octan-8-yl)but-2-enoyl)-4-(7-(8-ethynyl-7-fluoronaphthalen-1-yl)-8-fluoro-2-(((2R,7aS)-2-fluorotetrahydro-1H-pyrrolizin-7a(5H)-yl)methoxy)pyrido[4,3-d]pyrimidin-4-yl)piperazin-2-yl)acetonitrile]	> 8.00	2.93	132 (≈ 170 µM)
N#CC[C@H]1CN(c2nc(OC[C@@]34CCCN3C[C@H](F)C4)nc3c(F)c(-c4cccc5cccc(Cl)c45)ncc23)CCN1C(=O)/C=C/CN1CC[C@@H]2COC[C@H]21 [Compound 298]	> 8.00	2.99	118 (≈ 153 µM)
N#CC[C@H]1CN(c2nc(OC[C@@]34CCCN3C[C@H](F)C4)nc3c(F)c(-c4cccc(Cl)c4C(F)(F)F)ncc23)CCN1C(=O)/C=C/CN1CC2CC(C1)O2 [Compound 295]	> 8.00	2.75	102 (≈ 132 µM)
N#CC[C@H]1CN(c2nc(OCC34CCCN3CCC4)nc3c2CCN(c2cccc4cccc(Cl)c24)C3)CCN1C(=O)/C=C/CN1CC2COCC(C1)O2 [Compound 172]	> 8.00	2.1	119 (≈ 158 µM)
Cc1c(F)ccc2cccc(-c3ncc4c(N5CCN(C(=O)/C=C/CN6CCOCC6)[C@@H](CC#N)C5)nc(OC[C@@]56CCCN5C[C@H](F)C6)nc4c3F)c12 [Compound 246]	7.00 to 8.00	2.96	69.5 (≈ 93.9 µM)
CC(C)c1noc(/C=C/C(=O)N2CCN(c3nc(OCC45CCCN4CCC5)nc4c(F)c(-c5cccc6cccc(Cl)c56)ncc34)C[C@@H]2CC#N)n1 [Compound 120]	6.30 to 7.00	3.21	26.5 (≈ 36 µM)
N#CC[C@H]1CN(c2nc(OCC34CCCN3CCC4)nc3c2CCN(c2cccc4cccc(Cl)c24)C3)CCN1C(=O)/C=C/CN1CCN(C2COC2)CC1 [Compound 317]	> 8.00	2.01	114 (≈ 148 µM)
Cc1nsc(/C=C/C(=O)N2CCN(c3nc(OC[C@@]45CCCN4C[C@H](F)C5)nc4c3C[C@H](C)[C@@H](c3nc(N)cc(C)c3C(F)(F)F)C4)C[C@@H]2CC#N)n1 [Compound 203]	7.00 to 8.00	4.59	0.01 (≈ 0.0132 µM)
N#CC[C@H]1CN(c2nc(OC[C@@]34CCCN3C[C@H](F)C4)nc3c(F)c(-c4cccc5cccc(F)c45)ncc23)CCN1C(=O)/C=C/CN1CC2CC(C1)O2 [Compound 237]	> 8.00	2.87	67 (≈ 90.7 µM)
N#CC[C@H]1CN(c2nc(OC[C@@]34CCCN3C[C@H](F)C4)nc3c(F)c(-c4cccc(Cl)c4C(F)(F)F)ncc23)CCN1C(=O)/C=C/CN1CC[C@H](F)C1 [Compound 310]	7.00 to 8.00	3.13	123 (≈ 161 µM)
C[C@@H]1CN(C/C=C/C(=O)N2CCN(c3nc(OC[C@@]45CCCN4C[C@H](F)C5)nc4c(F)c(-c5cccc(Cl)c5C5CC5)ncc34)C[C@@H]2CC#N)C[C@H](C)O1 [Compound 300]	7.00 to 8.00	4.05	124 (≈ 164 µM)
C[C@@H]1CN(C/C=C/C(=O)N2CCN(c3nc(OC[C@@]45CCCN4C[C@H](F)C5)nc4c(F)c(-c5cccc(Cl)c5C(F)(F)F)ncc34)C[C@@H]2CC#N)C[C@@H](C)O1 [Compound 307]	> 8.00	3.68	124 (≈ 157 µM)
CN(C)C/C=C/C(=O)N1CCN(c2nc(OC[C@@]34CCCN3C[C@H](F)C4)nc3c(F)c(-c4cccc(Cl)c4C(F)(F)F)ncc23)C[C@@H]1CC#N [Compound 114, 2-((S)-4-(7-(3-chloro-2-(trifluoromethyl)phenyl)-8-fluoro-2-(((2R,7aS)-2-fluorotetrahydro-1H-pyrrolizin-7a(5H)-yl)methoxy)pyrido[4,3-d]pyrimidin-4-yl)-1-((E)-4-(dimethylamino)but-2-enoyl)piperazin-2-yl)acetonitrile]	> 8.00	2.35	121 (≈ 168 µM)
N#CC[C@H]1CN(c2nc(OCC34CCCN3CCC4)nc3c2CCN(c2cccc4cccc(Cl)c24)C3)CCN1C(=O)/C=C/c1nc(C2COC2)no1 [Example 6, (S,E)-2-(4-(7-(8-chloronaphthalen-1-yl)-2-((tetrahydro-1H-pyrrolizin-7a(5H)-yl)methoxy)-5,6,7,8-tetrahydropyrido[3,4-d]pyrimidin-4-yl)-1-(3-(3-(oxetan-3-yl)-1,2,4-oxadiazol-5-yl)acryloyl)piperazin-2-yl)acetonitrile]	7.00 to 8.00	2.72	86.4 (≈ 117 µM)
N#CC[C@H]1CN(c2nc(OCC34CCCN3CCC4)nc3c(F)c(-c4cccc5cccc(Cl)c45)ncc23)CCN1C(=O)/C=C/c1nc(C(F)F)no1 [Compound 27]	> 8.00	2.52	103 (≈ 138 µM)
N#CC[C@H]1CN(c2nc(OC[C@@]34CCCN3C[C@H](F)C4)nc3c(F)c(-c4cccc5cccc(Cl)c45)ncc23)CCN1C(=O)/C=C/CN1C[C@@H]2CC[C@H]1CO2 [Compound 259]	> 8.00	2.92	147 (≈ 191 µM)
N#CC[C@H]1CN(c2nc(OC[C@@]34CCCN3C[C@H](F)C4)nc3c(F)c(-c4cccc5cccc(Cl)c45)ncc23)CCN1C(=O)/C=C/CN1CCCOCC1 [Compound 109, 2-((S)-1-((E)-4-(1,4-oxazepan-4-yl)but-2-enoyl)-4-(7-(8-chloronaphthalen-1-yl)-8-fluoro-2-(((2R,7aS)-2-fluorohexahydro-1H-pyrrolizin-7a-yl)methoxy)pyrido[4,3-d]pyrimidin-4-yl)piperazin-2-yl)acetonitrile]	> 8.00	2.6	127 (≈ 167 µM)
